From publication PMC7065950 (Nature biotechnology, 2020) come the findings set out here.

Type in all cases: in vivo, C57BL/6 mice
One experiment relates to B16-F10 tumor cells. As to the kind of experiment: B16-F10 therapeutic tumor model. To be noted: B16-F10 SC implanted.
Experiment [1] relates to antigen-specific CD8 T cells. Nature of the experiment: CD8 T cell response by intracellular cytokine staining of blood. To be noted: LP delivered as SNP-7/8a; × = immunogenic; listed as M07.
The test system of experiment [2] is antigen-specific CD4 T cells. Nature of the experiment: CD4 T cell response by intracellular cytokine staining of blood. The conditions noted are these: LP delivered as SNP-7/8a; × = immunogenic.

For “ELINFKRKRVAAFQKNLIEMSELEIKH [Compound B16-M39]”, in the experiment with B16-F10 tumor cells (days 1, 8 and 15 with anti-PD-L1 IP), the “Tumor control, neoantigen as LP + polyIC by SC route” value is “no efficacy observed”.
On to “TAKSVMCTYSPPLDKLFCQLAKTCPVQ [Compound B16-M07]”, for which the “Tumor control, neoantigen as SNP-7/8a by IV route” value with B16-F10 tumor cells (with anti-PD-L1 IP) is on record as “improved control of tumor growth”. Further, in experiment [1], the “CD8 response, present study, SNP-7/8a” value is “induced a CD8 T cell response”. Moreover, the “CD4 response, present study, SNP-7/8a” value in experiment [2] is reported as “no significant CD4 T cell response”.
